Read-outs that look alike come from different tables or passages of the source.
What was measured:
KLK7 [1] = target: KLK7
KLK7 [2] = target: KLK7; remark: listed apart in the source
Excerpt: Head of the field: Ki [nM]
In contrast to the first generation, they contain only two cysteines cyclized with one linker. The K values are shown as mean of three measurements ±SD.
First copying reader's note: The two cysteines are bridged by a drawn acetone (C=O) linker shown above the sequence columns; the Ki cells hold the value ± its error against KLK7.

Substance | Ki (KLK7 [1]) | Ki (KLK7 [2])
P C L Y L S C P [compound 089] | 50 ± 5 nM | –
P C L Y L S R C S [compound 095] | – | 90 ± 7 nM
P C L Y M A R C S [compound 111] | – | 10 ± 1.3 nM

From patent publication US20220267379A1, “NOVEL INHIBITORS OF […] AND USES THEREOF” (Ecole Polytechnique Federale de Lausanne (EPFL), priority 2019, published 2022)
